In article PMC11967795 (Advanced Science, 2025):

Tests used:
[1] = molecular target: T1, RhuA (rRhuA; R. anatipestifer haemin uptake protein A) (Riemerella anatipestifer, UniProt J9QZE1); experiment: SDS-PAGE and ECL detection of bound haemin; type: binding; details: positive control
T1 construct: gene B739_1417; recombinant
T1 sequence (J9QZE1 17-210): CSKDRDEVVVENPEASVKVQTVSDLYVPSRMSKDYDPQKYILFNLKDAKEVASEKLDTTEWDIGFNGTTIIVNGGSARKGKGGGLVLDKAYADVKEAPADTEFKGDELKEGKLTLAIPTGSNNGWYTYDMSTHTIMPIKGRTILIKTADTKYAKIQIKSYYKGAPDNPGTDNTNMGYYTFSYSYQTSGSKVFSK

[2] = molecular target: recombinant RhuH protein (R. anatipestifer haem uptake protein haemophore), mature, without signal peptide (Riemerella anatipestifer CH-1); experiment: SEC; purified recombinant apo RhuH on size exclusion chromatography; elution compared with the 35 kDa of the sequence

C=CC1=C(C)C2=Cc3c(C=C)c(C)c4[n]3[Fe]([Cl])[n]3c(c(C)c(CCC(=O)O)c3=CC3=NC(=C4)C(C)=C3CCC(=O)O)=CC1=N2 [haemin]
SDS-PAGE and ECL detection of bound haemin [1]: haemin signal was detected in the haem binding protein rRhuA (positive control) incubated with haemin

recombinant RhuH protein (R. anatipestifer haem uptake protein haemophore), mature, without signal peptide (natural protein)
stoichiometry N [2]: 2
